Laboratory results from patent US7981903B2, “2-[2-{phenylamino}-1H-pyrrolo[2,3-D]pyrimidin-4-yl)amino] benzamide derivatives as IGF-1R inhibitors for the treatment of cancer” (GlaxoSmithKline LLC, priority 2007, dated 2011).
pIC50: −log10 of the molar value.

Key:
ALK = ALK (Homo sapiens, UniProt Q9UM73); assay: ALK enzyme assay (HTRF); format: biochemical; conditions: 0.25 nM ALK, 15.0 μM ATP, values given as pIC50 category
Method in brief: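 Final compound range 0.00017 to 10 μM (twelve 1:3 dilutions). Kinase reaction with ATP and biotinylated synthetic peptide runs 120 min at 20° C, stopped with EDTA; phosphotyrosine detected by HTRF after 60 min. Inhibition referenced to DMSO (1%) and EDTA (0.1 M) controls, curve-fitted.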

[1] = biological target: T1, NIH-3T3 cells overexpressing human IGF-1R (Homo sapiens, UniProt P08069); assay: IGF-1R cellular autophosphorylation (DELFIA); format: cell-based
T1 construct: expressed in transfected cells; host or cells: NIH-3T3 (mouse fibroblasts)
T1 sequence (P08069 31-1367): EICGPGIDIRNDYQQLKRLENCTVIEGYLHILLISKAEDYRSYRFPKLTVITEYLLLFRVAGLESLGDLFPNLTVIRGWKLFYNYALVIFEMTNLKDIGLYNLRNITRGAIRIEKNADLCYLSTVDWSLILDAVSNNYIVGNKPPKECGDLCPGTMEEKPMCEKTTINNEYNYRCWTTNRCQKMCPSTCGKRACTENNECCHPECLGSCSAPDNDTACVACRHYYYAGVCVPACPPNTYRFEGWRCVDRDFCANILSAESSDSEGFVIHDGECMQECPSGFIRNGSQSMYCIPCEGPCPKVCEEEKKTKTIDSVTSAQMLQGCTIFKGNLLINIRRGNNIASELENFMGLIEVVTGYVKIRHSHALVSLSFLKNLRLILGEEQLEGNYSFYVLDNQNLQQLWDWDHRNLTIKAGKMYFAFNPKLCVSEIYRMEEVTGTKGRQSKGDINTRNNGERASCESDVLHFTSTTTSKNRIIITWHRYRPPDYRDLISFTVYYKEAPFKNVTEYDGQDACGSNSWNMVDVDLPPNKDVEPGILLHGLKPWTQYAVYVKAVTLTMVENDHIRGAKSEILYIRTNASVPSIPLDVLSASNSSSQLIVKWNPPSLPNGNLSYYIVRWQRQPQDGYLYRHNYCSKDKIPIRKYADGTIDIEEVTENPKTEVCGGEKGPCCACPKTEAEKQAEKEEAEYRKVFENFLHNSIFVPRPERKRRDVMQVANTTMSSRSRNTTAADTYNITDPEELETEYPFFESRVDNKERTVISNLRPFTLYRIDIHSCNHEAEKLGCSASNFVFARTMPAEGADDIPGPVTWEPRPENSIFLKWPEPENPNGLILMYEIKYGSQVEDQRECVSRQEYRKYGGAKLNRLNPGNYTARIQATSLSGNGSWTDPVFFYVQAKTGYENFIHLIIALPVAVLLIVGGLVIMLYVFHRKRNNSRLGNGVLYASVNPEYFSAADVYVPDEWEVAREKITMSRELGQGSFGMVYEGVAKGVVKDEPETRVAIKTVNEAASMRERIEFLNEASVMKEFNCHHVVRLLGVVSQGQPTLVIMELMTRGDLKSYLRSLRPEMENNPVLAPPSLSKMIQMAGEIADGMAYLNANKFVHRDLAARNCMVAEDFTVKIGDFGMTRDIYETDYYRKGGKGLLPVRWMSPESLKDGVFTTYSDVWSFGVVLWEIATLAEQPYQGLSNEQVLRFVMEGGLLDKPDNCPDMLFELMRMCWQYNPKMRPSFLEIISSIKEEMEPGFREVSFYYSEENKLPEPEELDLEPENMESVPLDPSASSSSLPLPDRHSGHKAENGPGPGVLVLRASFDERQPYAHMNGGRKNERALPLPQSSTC
Method in brief: (§1)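 Receptor autophosphorylation measured by DELFIA, capturing IGF-1R or IRβ and detecting with europium anti-pTyr, reported as percent of IGF-1- or insulin-stimulated signal. Compounds (30 uM to 1.5 nM) added 2 h before ligand, then 15 min stimulation (IGF-1 30 ng/ml or insulin 3 ug/ml).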

[2] = biological target: T2, NIH-3T3 cells overexpressing human IR (Homo sapiens, UniProt P06213); assay: IR cellular autophosphorylation (DELFIA); format: cell-based; conditions: 2 h compound, insulin 3 ug/ml for 15 minutes, IC50 category
T2 construct: expressed in transfected cells; host or cells: NIH-3T3 (mouse fibroblasts)
T2 sequence (P06213 28-1382): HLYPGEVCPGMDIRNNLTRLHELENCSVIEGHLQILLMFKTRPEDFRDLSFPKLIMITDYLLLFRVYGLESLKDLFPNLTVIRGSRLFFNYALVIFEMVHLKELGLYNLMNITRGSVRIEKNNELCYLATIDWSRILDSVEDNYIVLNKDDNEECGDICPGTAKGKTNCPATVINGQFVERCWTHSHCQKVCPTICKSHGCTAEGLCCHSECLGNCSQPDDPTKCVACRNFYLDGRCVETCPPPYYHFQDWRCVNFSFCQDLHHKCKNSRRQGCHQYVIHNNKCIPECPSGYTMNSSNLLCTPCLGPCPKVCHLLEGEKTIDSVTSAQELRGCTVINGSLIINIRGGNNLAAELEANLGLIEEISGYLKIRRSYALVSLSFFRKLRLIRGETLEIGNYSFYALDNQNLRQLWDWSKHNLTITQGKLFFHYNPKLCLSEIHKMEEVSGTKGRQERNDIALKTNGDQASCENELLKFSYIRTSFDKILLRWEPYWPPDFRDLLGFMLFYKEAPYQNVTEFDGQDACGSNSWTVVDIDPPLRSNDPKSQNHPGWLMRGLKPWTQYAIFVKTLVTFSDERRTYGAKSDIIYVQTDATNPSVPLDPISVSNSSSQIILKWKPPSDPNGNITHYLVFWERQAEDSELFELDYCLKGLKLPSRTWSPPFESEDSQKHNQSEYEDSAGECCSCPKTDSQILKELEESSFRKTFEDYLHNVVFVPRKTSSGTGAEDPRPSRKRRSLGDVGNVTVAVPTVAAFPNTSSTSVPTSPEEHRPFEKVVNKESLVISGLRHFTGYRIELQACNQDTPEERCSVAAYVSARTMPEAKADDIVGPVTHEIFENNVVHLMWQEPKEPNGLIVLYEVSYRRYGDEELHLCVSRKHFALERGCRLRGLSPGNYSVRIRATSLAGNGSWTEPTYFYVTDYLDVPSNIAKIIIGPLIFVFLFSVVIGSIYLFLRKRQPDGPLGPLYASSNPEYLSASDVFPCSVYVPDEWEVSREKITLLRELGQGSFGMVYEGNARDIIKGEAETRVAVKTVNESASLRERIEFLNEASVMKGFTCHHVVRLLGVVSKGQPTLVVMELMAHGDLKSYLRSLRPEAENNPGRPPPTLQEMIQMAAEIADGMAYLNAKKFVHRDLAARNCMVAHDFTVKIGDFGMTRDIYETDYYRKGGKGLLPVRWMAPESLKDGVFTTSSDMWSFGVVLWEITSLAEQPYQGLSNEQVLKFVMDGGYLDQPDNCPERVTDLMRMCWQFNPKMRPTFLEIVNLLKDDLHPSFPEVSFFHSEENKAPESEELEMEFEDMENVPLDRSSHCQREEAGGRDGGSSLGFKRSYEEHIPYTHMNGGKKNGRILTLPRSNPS
Method in brief: as §1

Chain of ALK (Q9UM73 19-1620): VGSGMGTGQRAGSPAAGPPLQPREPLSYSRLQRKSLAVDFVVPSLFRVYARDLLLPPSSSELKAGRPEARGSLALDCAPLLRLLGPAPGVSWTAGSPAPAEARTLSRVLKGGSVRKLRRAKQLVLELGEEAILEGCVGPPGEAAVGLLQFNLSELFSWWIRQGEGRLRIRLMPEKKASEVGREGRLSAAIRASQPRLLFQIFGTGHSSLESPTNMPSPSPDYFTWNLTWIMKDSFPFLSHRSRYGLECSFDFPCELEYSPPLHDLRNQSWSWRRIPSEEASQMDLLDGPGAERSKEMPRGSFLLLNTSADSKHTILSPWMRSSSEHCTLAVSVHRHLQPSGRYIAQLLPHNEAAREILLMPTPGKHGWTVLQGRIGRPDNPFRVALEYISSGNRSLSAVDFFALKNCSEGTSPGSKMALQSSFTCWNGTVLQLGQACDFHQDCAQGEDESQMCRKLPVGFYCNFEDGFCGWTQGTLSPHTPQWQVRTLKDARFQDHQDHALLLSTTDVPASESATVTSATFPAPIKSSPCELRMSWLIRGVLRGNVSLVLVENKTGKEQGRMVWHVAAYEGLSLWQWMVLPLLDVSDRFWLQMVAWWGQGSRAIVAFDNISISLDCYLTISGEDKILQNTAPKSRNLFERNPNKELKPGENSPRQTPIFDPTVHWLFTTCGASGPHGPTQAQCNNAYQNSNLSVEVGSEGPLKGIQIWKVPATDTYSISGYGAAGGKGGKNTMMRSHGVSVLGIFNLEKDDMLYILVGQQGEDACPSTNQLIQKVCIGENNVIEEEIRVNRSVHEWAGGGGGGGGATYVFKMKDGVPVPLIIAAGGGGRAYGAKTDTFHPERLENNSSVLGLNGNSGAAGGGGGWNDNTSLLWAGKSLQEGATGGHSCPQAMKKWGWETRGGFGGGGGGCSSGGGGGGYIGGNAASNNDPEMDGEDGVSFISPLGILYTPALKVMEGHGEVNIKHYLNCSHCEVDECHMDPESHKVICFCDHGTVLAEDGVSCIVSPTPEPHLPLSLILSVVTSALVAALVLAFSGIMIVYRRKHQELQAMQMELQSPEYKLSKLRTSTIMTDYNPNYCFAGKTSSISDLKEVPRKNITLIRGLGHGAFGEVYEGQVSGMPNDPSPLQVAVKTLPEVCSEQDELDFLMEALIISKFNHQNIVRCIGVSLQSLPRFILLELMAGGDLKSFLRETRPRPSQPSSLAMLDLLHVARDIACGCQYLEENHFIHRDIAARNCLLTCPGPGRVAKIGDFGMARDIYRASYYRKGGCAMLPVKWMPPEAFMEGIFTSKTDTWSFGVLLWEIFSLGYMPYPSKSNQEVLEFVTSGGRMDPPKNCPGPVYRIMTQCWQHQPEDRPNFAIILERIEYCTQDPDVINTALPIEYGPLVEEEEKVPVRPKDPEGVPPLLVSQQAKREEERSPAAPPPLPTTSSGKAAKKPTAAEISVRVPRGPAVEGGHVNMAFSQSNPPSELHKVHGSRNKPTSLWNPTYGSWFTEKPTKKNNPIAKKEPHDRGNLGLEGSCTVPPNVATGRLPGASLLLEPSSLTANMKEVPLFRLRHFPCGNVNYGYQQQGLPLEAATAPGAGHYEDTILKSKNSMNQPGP

Structure (SMILES)	pIC50 (ALK)	pIC50 [1]	pIC50 [2]
COc1cc2c(cc1Nc1nc(Nc3cccc(F)c3C(N)=O)c3cc[nH]c3n1)CN(C(=O)CCN(C)C)CC2 [Example 230, 2-[(2-{[2-(N,N-dimethyl-β-alanyl)-6-(methyloxy)-1,2,3,4-tetrahydro-7-isoquinolinyl]amino}-1H-pyrrolo[2,3-d]pyrimidin-4-yl)amino]-6-fluorobenzamide]	6.70 to 8.30	< 6.30	6.30 to 7.00
COc1cc2c(cc1Nc1nc(Nc3cccc(F)c3C(N)=O)c3cc[nH]c3n1)CN(C(=O)CCN1CCOCC1)CC2 [Example 231, 2-fluoro-6-{[2-({6-(methyloxy)-2-[3-(4-morpholinyl)propanoyl]-1,2,3,4-tetrahydro-7-isoquinolinyl}amino)-1H-pyrrolo[2,3-d]pyrimidin-4-yl]amino}benzamide]	6.70 to 8.30	6.30 to 7.00	< 6.30
CNC(=O)c1c(F)cccc1Nc1nc(Nc2cc3c(cc2OC)CCN(C(C)C)C3)nc2[nH]ccc12 [Example 235, 2-fluoro-N-methyl-6-[(2-{[2-(1-methylethyl)-6-(methyloxy)-1,2,3,4-tetrahydro-7-isoquinolinyl]amino}-1H-pyrrolo[2,3-d]pyrimidin-4-yl)amino]benzamide]	8.40 to 8.90	< 6.30	< 6.30
CCC(C)N1CCc2cc(OC)c(Nc3nc(Nc4cccc(F)c4C(=O)NC)c4cc[nH]c4n3)cc2C1 (stereo not drawn) [Example 238, 2-fluoro-N-methyl-6-[(2-{[6-(methyloxy)-2-(1-methylpropyl)-1,2,3,4-tetrahydro-7-isoquinolinyl]amino}-1H-pyrrolo[2,3-d]pyrimidin-4-yl)amino]benzamide]	8.40 to 8.90	< 6.30	6.30 to 7.00
COc1cc2c(cc1Nc1nc(Nc3cccc(F)c3C(N)=O)c3cc(C)[nH]c3n1)N(C(=O)CN(C)C)CC2 [Example 262, 2-[(2-{[1-(N,N-dimethylglycyl)-5-(methyloxy)-2,3-dihydro-1H-indol-6-yl]amino}-6-methyl-1H-pyrrolo[2,3-d]pyrimidin-4-yl)amino]-6-fluorobenzamide]	6.70 to 8.30	6.30 to 7.00	6.30 to 7.00

More lines, now with the values ahead:

pIC50 (ALK)	pIC50 [1]	pIC50 [2]	Structure (SMILES)
6.70 to 8.30	< 6.30	< 6.30	COc1cc2c(cc1Nc1nc(Nc3cccc(F)c3C(N)=O)c3cc[nH]c3n1)CN(C(=O)CCN1CCN(C(C)C)CC1)CC2 [Example 229, 2-fluoro-6-[(2-{[2-{3-[4-(1-methylethyl)-1-piperazinyl]propanoyl}-6-(methyloxy)-1,2,3,4-tetrahydro-7-isoquinolinyl]amino}-1H-pyrrolo[2,3-d]pyrimidin-4-yl)amino]benzamide]
8.40 to 8.90	< 6.30	< 6.30	COc1cc2c(cc1Nc1nc(Nc3cccc(F)c3C(N)=O)c3cc[nH]c3n1)CN(CCCN(C)C)CC2 [Example 232, 2-[(2-{[2-[3-(dimethylamino)propyl]-6-(methyloxy)-1,2,3,4-tetrahydro-7-isoquinolinyl]amino}-1H-pyrrolo[2,3-d]pyrimidin-4-yl)amino]-6-fluorobenzamide]
6.70 to 8.30	6.30 to 7.00	> 7.00	CNC(=O)c1c(F)cccc1Nc1nc(Nc2cc(N(C)C(=O)CN(C)C)ccc2OC)nc2[nH]ccc12 [Example 242, 2-[(2-{[5-[(N,N-dimethylglycyl)(methyl)amino]-2-(methyloxy)phenyl]amino}-1H-pyrrolo[2,3-d]pyrimidin-4-yl)amino]-6-fluoro-N-methylbenzamide]
9.00 to 9.60	> 7.00	> 7.00	COc1ccc(NC(=O)CN(C)C)cc1Nc1nc(Nc2cccc(F)c2C(N)=O)c2cc[nH]c2n1 [Example 244, 2-[(2-{[5-[(N,N-dimethylglycyl)amino]-2-(methyloxy)phenyl]amino}-1H-pyrrolo[2,3-d]pyrimidin-4-yl)amino]-6-fluorobenzamide]
9.00 to 9.60	6.30 to 7.00	6.30 to 7.00	CNC(=O)c1c(F)cccc1Nc1nc(Nc2cc3c(cc2OC)CCN3C(=O)CN(C)C)nc2[nH]cc(C)c12 [Example 258, 2-[(2-{[1-(N,N-dimethylglycyl)-5-(methyloxy)-2,3-dihydro-1H-indol-6-yl]amino}-5-methyl-1H-pyrrolo[2,3-d]pyrimidin-4-yl)amino]-6-fluoro-N-methylbenzamide]
